Reference: patent US20180217131A1, “Novel Cell Based Assay” (Medical Diagnostic Laboratories, LLC, priority 2017, published 2018)
Changes are numbered by the printed parent chain.

Key:
Assay type in all cases: cell-based
[1] = target: T1, aromatase (wild-type CYP19A1) (Homo sapiens, UniProt P11511); assay: Aromatase reporter assay, 3×ERE-luc clone #4 cells transfected with expression constructs of estrogen receptor and aromatase; conditions: 24 hours; for testosterone-induced luciferase reporter activity in the presence of aromatase inhibitor: clone #4, testosterone with or without inhibitor
T1 construct: expressed in transfected cells; host or cells: HEK 293-derived 3xERE-luc clone #4 (co-transfected with ESR1) or clone #1 (stably expressing wild-type ESR1)
T1 sequence (P11511 1-503): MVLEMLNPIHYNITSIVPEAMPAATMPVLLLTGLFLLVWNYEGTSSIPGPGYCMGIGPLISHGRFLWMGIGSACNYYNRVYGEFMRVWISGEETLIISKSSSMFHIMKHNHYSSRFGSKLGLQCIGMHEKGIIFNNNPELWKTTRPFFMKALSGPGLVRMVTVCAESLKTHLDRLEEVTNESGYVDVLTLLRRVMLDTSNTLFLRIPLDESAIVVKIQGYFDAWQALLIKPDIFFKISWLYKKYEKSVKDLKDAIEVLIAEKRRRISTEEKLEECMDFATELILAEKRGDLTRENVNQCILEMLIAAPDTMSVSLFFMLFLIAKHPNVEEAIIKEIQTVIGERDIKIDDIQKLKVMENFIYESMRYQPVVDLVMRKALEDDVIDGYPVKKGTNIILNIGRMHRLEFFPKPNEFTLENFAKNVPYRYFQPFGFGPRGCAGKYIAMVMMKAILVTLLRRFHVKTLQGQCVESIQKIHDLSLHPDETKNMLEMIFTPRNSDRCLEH
Experimental: A serial dilution of testosterone was added to the cells for 24 hours. The luciferase reporter activity was measured.
The transfected cells were treated with testosterone in the presence or absence of aromatase inhibitors, anastrozole and letrozole, for 24 hours (FIG. 31).

[2] = target: T1, aromatase (wild-type CYP19A1); assay: Aromatase reporter assay, clone #1 cells (stable 3×ERE-Luc and wild-type ESR1) transfected with linear expression cassette of wild-type CYP19A1
Experimental: The luciferase reporter activity was measured 24 hours post-transfection.

[3] = target: T2, R192H mutant of aromatase (CYP19A1) (Homo sapiens, UniProt P11511, R192H); assay: Aromatase reporter assay with R192H mutant of CYP19A1
T2 construct: expressed in transfected cells; host or cells: HEK 293-derived reporter cells (clone #4 with ESR1 co-transfected; clone #1 stably expressing ESR1)
T2 sequence (P11511 1-503 R192H): T1 sequence (P11511 1-503) with R192H
Experimental: (§1) The transfected cells were treated with a serial dilution of testosterone. The luciferase reporter activity was measured 24 hours post-transfection.
R192H corresponds to a missense mutation of CYP19A1, which changed arginine (R) into histidine (H) at amino acid position of 192. In order to functionally characterize this mutation, PCR-mediated overlapping extension was employed to construct linear expression cassette of aromatase carrying this mutation. We first transfected the linear expression cassette of either wild-type aromatase or mutant aromatase DNA into the reporter cells followed by treatment with testosterone and its inhibitors using “all-in-one” method. The luciferase reporter activity was measured 24 hours post-transfection.
We used the formula as illustrated in the above-mentioned example to calculate the activity of aromatase.

[4] = target: T3, R435C mutant of aromatase (CYP19A1) (Homo sapiens, UniProt P11511, R435C); assay: Aromatase reporter assay with R435C mutant of CYP19A1
T3 construct: expressed in transfected cells; host or cells: HEK 293-derived reporter cells (clone #4 with ESR1 co-transfected; clone #1 stably expressing ESR1)
T3 sequence (P11511 1-503 R435C): T1 sequence (P11511 1-503) with R435C
Experimental: as §1
R435C corresponds to a missense mutation of CYP19A1, which changed arginine (R) into cysteine (C) at amino acid position of 435. In order to functionally characterize this mutation, PCR-mediated overlapping extension was employed to construct linear expression cassette of aromatase carrying this mutation. We first transfected the linear expression cassette of either wild-type aromatase or mutant aromatase DNA into the reporter cells followed by treatment with testosterone and its inhibitors using “all-in-one” method. The luciferase reporter activity was measured 24 hours post-transfection.

| Compound | testosterone-induced luciferase reporter activity in the presence of aromatase inhibitor [1] | luciferase activity upon treatment of testosterone ([1]; clone #4, estrogen receptor and aromatase constructs, serial dilution of testosterone) | luciferase reporter activity upon addition of testosterone ([2]; clone #1, 25 ng or 50 ng aromatase linear DNA, testosterone for 6 hours) | reporter signal at 1 pM of testosterone ([2]; clone #1, 50 ng linear cassette, testosterone for 24 hours, 1 pM) | luciferase activity upon treatment of testosterone, compared to wild type ([3]; clone #1, linear expression cassette of R192H, all-in-one method) | luciferase reporter activity upon testosterone, compared to wild type ([3]; clone #4, expression constructs of estrogen receptor and R192H aromatase, serial dilution of testosterone) | luciferase activity upon treatment of testosterone ([4]; clone #1, linear expression cassette of R435C, all-in-one method) | induction of luciferase reporter activity upon testosterone exposure ([4]; clone #4, expression constructs of estrogen receptor and R435C aromatase) |
| --- | --- | --- | --- | --- | --- | --- | --- | --- |
| CC(C)(C#N)c1cc(Cn2cncn2)cc(C(C)(C)C#N)c1 [anastrozole] | reduced |  |  |  |  |  |  |  |
| N#Cc1ccc(C(c2ccc(C#N)cc2)n2cncn2)cc1 [letrozole] | reduced |  |  |  |  |  |  |  |
| C[C@]12CC[C@H]3[C@@H](CCC4=CC(=O)CC[C@@]43C)[C@@H]1CC[C@@H]2O [testosterone] |  | dose dependent activation of luciferase activity was observed | responded to testosterone in a dose-dependent manner | robust reporter signal was detected | reduced luciferase activity was observed | reduced luciferase reporter activity | no increase in luciferase activity was observed | no induction of luciferase reporter activity |
